From ChEMBL document CHEMBL1201862, “PubChem BioAssay data set” (2004)
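1) Cells in 96-well plates. 2) Compound, 48 h, 5 concentrations. 3) Linear interpolation between surrounding doses. 4) Unreached endpoint = highest concentration. GI50 = concentration required for 50% inhibition of growth.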 The source made the active and inactive calls. Rule as the data show it: active = GI50 up to about 1.1 µM and inactive = higher.

Key:
Test in all cases: growth of human tumour cells (NCI), 48 h
Malme-3M = tested on: Malme-3M
MDA-N = tested on: MDA-N
RXF 393 = tested on: RXF 393
MDA-MB-231 = tested on: MDA-MB-231
OVCAR-3 = tested on: OVCAR-3
SK-MEL-2 = tested on: SK-MEL-2
SW-620 = tested on: SW-620
M14 = tested on: M14
BT-549 = tested on: BT-549
SK-OV-3 = tested on: SK-OV-3
RPMI-8226 = tested on: RPMI-8226
HOP-62 = tested on: HOP-62
IGROV-1 = tested on: IGROV-1
CCRF-CEM = tested on: CCRF-CEM
SK-MEL-28 = tested on: SK-MEL-28
MDA-MB-435 = tested on: MDA-MB-435
HCC 2998 = tested on: HCC 2998
A549 = tested on: A549
MCF7 = tested on: MCF7
A498 = tested on: A498

SMILES | GI50 (Malme-3M) | GI50 (MDA-N) | GI50 (RXF 393) | GI50 (MDA-MB-231) | GI50 (OVCAR-3) | GI50 (SK-MEL-2) | GI50 (SW-620) | GI50 (M14) | GI50 (BT-549) | GI50 (SK-OV-3) | GI50 (RPMI-8226) | GI50 (HOP-62) | GI50 (IGROV-1) | GI50 (CCRF-CEM) | GI50 (SK-MEL-28) | GI50 (MDA-MB-435) | GI50 (HCC 2998) | GI50 (A549) | GI50 (MCF7) | GI50 (A498)
COc1cc(C2c3cc4c(cc3[C@H](OCCN(C)C)[C@@H]3COC(=O)C23)OCO4)cc(OC)c1O (stereo not given in full) | 0.275 µM (active) | 2.12 µM (inactive) | 0.299 µM (active) | 2.62 µM (inactive) | 1.46 µM (inactive) | 0.706 µM (active) | 0.422 µM (active) | 0.244 µM (active) | 0.499 µM (active) | 0.0912 µM (active) | 0.938 µM (active) | 0.053 µM (active) | 1.36 µM (inactive) | 0.0791 µM (active) | 1.02 µM (active) | 2 µM (inactive) | 0.774 µM (active) | 0.0334 µM (active) | 0.0484 µM (active) | 0.105 µM (active)
N#Cc1c(N)c2c(c(-c3ccccc3)c1-c1ccccc1)C(=O)N(Nc1ccccc1)C2=O | > 100 µM (inactive) | 36.8 µM (inactive) | 19.3 µM (inactive) | > 100 µM (inactive) | 21.7 µM (inactive) | 30.1 µM (inactive) | > 100 µM (inactive) | 22.2 µM (inactive) | 56.1 µM (inactive) | – | 29.5 µM (inactive) | – | 34.8 µM (inactive) | 31.6 µM (inactive) | 46.6 µM (inactive) | 68.5 µM (inactive) | 35.8 µM (inactive) | 26.9 µM (inactive) | 47.8 µM (inactive) | 28.4 µM (inactive)
O=c1[nH]nc(-c2ccccc2)n1-n1cnnc1 | > 100 µM (inactive) | > 100 µM (inactive) | > 100 µM (inactive) | > 100 µM (inactive) | > 100 µM (inactive) | > 100 µM (inactive) | > 100 µM (inactive) | > 100 µM (inactive) | > 100 µM (inactive) | > 100 µM (inactive) | > 100 µM (inactive) | > 100 µM (inactive) | > 100 µM (inactive) | > 100 µM (inactive) | – | > 100 µM (inactive) | > 100 µM (inactive) | > 100 µM (inactive) | > 100 µM (inactive) | > 100 µM (inactive)
C[C@@H]1CCC2[C@@H](C)[C@@H](O[C@H]3O[C@@H]4O[C@@]5(C)CCC6[C@H](C)CCC([C@H]3C)[C@]64OO5)O[C@@H]3O[C@@]4(C)CCC1[C@@]23OO4 (stereo not given in full) | – | 2.65 µM (inactive) | > 12.6 µM (inactive) | > 25 µM (inactive) | 7.45 µM (inactive) | 16 µM (inactive) | 1.16 µM (inactive) | > 25 µM (inactive) | 1.23 µM (inactive) | > 25 µM (inactive) | 0.586 µM (active) | > 25 µM (inactive) | > 25 µM (inactive) | 7.46 µM (inactive) | > 25 µM (inactive) | 6.97 µM (inactive) | > 25 µM (inactive) | 18.6 µM (inactive) | 1.51 µM (inactive) | > 25 µM (inactive)
CO[C@H]1C[C@@H]2CC[C@@H](C)[C@@](O)(O2)C(=O)C(=O)N2CCCC[C@H]2C(=O)O[C@H]([C@H](C)C[C@@H]2CC[C@@H](OC(=O)C(C)(CO)CO)[C@H](OC)C2)CC(=O)[C@H](C)/C=C(\C)[C@@H](O)[C@@H](OC)C(=O)[C@H](C)C[C@H](C)/C=C/C=C/C=C/1C [TEMSIROLIMUS] | 0.000199 µM (active) | 4.03 µM (inactive) | 0.0034 µM (active) | 0.0217 µM (active) | 0.00183 µM (active) | 0.051 µM (active) | 4.23 µM (inactive) | 0.0417 µM (active) | 0.00904 µM (active) | 1.97 µM (inactive) | 0.000292 µM (active) | 0.00125 µM (active) | – | 0.00177 µM (active) | 0.0298 µM (active) | 0.0243 µM (active) | 1.82 µM (inactive) | 0.0301 µM (active) | 0.00538 µM (active) | 0.0363 µM (active)
